From the supplement of paper PMC10307832

Key:
Assay in all cases: relative viability (nuclei count vs DMSO), 5 days (fraction); higher = more cells survive
[1] = compound: CC1=C(C(=NN1)C)CC2=C(C3=C(S2)N(C(=O)N(C3=O)C)CC(C)C)C(=O)N4C[C@@H](CO4)O + N=C(N)NC(=N)NCCc1ccccc1 [Phenformin] (partner 250 µM)
How it was run: (§1)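 Medians of duplicate plates are given as relative viability. That measure is the nuclei count in treated wells divided by the count in vehicle wells. Counts were taken on 4× images of lung cancer cell lines in 1536-well plates, 5 days after pin-tool dosing the day after seeding with one drug alone or a fixed anchor-drug dose plus five library-drug doses (not always all listed) in √10 steps.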

IDH-C35 + Palbociclib = compound: Cc1ccccc1C(C(=O)NC1CCCCC1)N(C(=O)Cn1ccnc1C)c1cccc(F)c1 [IDH-C35] + CC(=O)c1c(C)c2cnc(Nc3ccc(N4CCNCC4)cn3)nc2n(C2CCCC2)c1=O [Palbociclib] (partner 0.5 µM)
How it was run: as §1

IDH-C35 + OSI-027 = compound: Cc1ccccc1C(C(=O)NC1CCCCC1)N(C(=O)Cn1ccnc1C)c1cccc(F)c1 [IDH-C35] + COc1cccc2cc(-c3nc([C@H]4CC[C@H](C(=O)O)CC4)n4ncnc(N)c34)[nH]c12 [OSI-027] (partner 0.5 µM)
How it was run: as §1

IDH-C35 + Luminespib = compound: Cc1ccccc1C(C(=O)NC1CCCCC1)N(C(=O)Cn1ccnc1C)c1cccc(F)c1 [IDH-C35] + CCNC(=O)c1noc(-c2cc(C(C)C)c(O)cc2O)c1-c1ccc(CN2CCOCC2)cc1 [Luminespib] (partner 0.01 µM)
How it was run: as §1

Cell Line: UMC-11
- relative viability ([1]; first compound 0.0025 µM): 0.168
- relative viability ([1]; first compound 0.007906 µM): 0.195
- relative viability ([1]; first compound 0.025 µM): 0.156
- relative viability ([1]; first compound 0.07906 µM): 0.17
- relative viability ([1]; first compound 0.25 µM): 0.188
- relative viability (IDH-C35 + Palbociclib; first compound 0.08 µM): 0.335
- relative viability (IDH-C35 + Palbociclib; first compound 0.253 µM): 0.32
- relative viability (IDH-C35 + Palbociclib; first compound 0.8 µM): 0.341
- relative viability (IDH-C35 + Palbociclib; first compound 2.53 µM): 0.299
- relative viability (IDH-C35 + Palbociclib; first compound 8 µM): 0.337
- relative viability (IDH-C35 + OSI-027; first compound 0.08 µM): 0.444
- relative viability (IDH-C35 + OSI-027; first compound 0.253 µM): 0.47
- relative viability (IDH-C35 + OSI-027; first compound 0.8 µM): 0.473
- relative viability (IDH-C35 + OSI-027; first compound 2.53 µM): 0.482
- relative viability (IDH-C35 + OSI-027; first compound 8 µM): 0.463
- relative viability (IDH-C35 + Luminespib; first compound 0.08 µM): 1.01
- relative viability (IDH-C35 + Luminespib; first compound 0.253 µM): 1.03
- relative viability (IDH-C35 + Luminespib; first compound 0.8 µM): 1.02
- relative viability (IDH-C35 + Luminespib; first compound 2.53 µM): 1.08
- relative viability (IDH-C35 + Luminespib; first compound 8 µM): 1.01
